# Legend:
# Format in all cases: functional
# Mus musculus [1] = experiment: Tested in vivo antitumor activity at a dose of subcutaneous 40 mg/kg/injection in Madison 109 murine lung carcinoma (M109)
# Mus musculus [2] = experiment: Tested in vivo antitumor activity at a dose of subcutaneous 24 mg/kg/injection relative to paclitaxel in Madison 109 murine lung carcinoma (M109)
# Mus musculus [3] = experiment: Tested in vivo antitumor activity at a dose of subcutaneous 18 mg/kg/injection relative to paclitaxel in Madison 109 murine lung carcinoma (M109)
# Mus musculus [4] = experiment: Tested in vivo antitumor activity at a dose of subcutaneous 48 mg/kg/injection relative to paclitaxel in Madison 109 murine lung carcinoma (M109)
# Mus musculus [5] = experiment: Tested in vivo antitumor activity at a dose of subcutaneous 33 mg/kg/injection in Madison 109 murine lung carcinoma (M109)
Compound,T-C (Mus musculus [1]),T-C (Mus musculus [2]),T-C (Mus musculus [3]),T-C (Mus musculus [4]),T-C (Mus musculus [5])
CCOC(=O)O[C@@H](C(=O)O[C@H]1C[C@@]2(O)[C@@H](OC(=O)c3ccccc3)[C@@H]3[C@]4(OC(C)=O)CO[C@@H]4C[C@H](OC(=O)c4ccccc4COP(=O)([O-])O)[C@@]3(C)C(=O)[C@H](OC(C)=O)C(=C1C)C2(C)C)[C@@H](NC(=O)c1ccccc1)c1ccccc1.[K+],17 days (optimal dose)-1,10.8 days (optimal dose)-1,,,
CCOC(=O)O[C@@H](C(=O)O[C@H]1C[C@@]2(O)[C@@H](OC(=O)c3ccccc3)[C@@H]3[C@]4(OC(C)=O)CO[C@@H]4C[C@H](OC(=O)CC(C)(C)c4c(C)cc(C)cc4OP(=O)([O-])O)[C@@]3(C)C(=O)[C@H](OC(C)=O)C(=C1C)C2(C)C)[C@@H](NC(=O)c1ccccc1)c1ccccc1.[Na+],18 days (optimal dose)-1,,12.3 days (optimal dose)-1,,
CCOC(=O)O[C@@H](C(=O)O[C@H]1C[C@@]2(O)[C@@H](OC(=O)c3ccccc3)[C@@H]3[C@]4(OC(C)=O)CO[C@@H]4C[C@H](OC(=O)Cc4ccccc4OP(=O)([O-])O)[C@@]3(C)C(=O)[C@H](OC(C)=O)C(=C1C)C2(C)C)[C@@H](NC(=O)c1ccccc1)c1ccccc1.[Na+],,,,15.8 days (optimal dose)-1,1.5 days (optimal dose)-1

# — ChEMBL document CHEMBL1152077, “Novel, water-soluble phosphate derivatives of 2-ethoxy carbonylpaclitaxel as potential prodrugs of paclitaxel: Synthesis and antitumor evaluation” (1995)
